Experimental data as given in patent publication US9278958B2, “Anti-cancer compounds” (KATHOLIEKE UNIVERSITEIT LEUVEN, priority 2012, dated 2016).
Like-named read-outs stand apart in the source and are kept apart here.

Legend:
CEM cells = assay: Cytostatic assay, CEM; type: cell-based; conditions: Homo sapiens, CCRF-CEM
Summary of the method: (§1)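 Incubation of 5-7.5×10^4 cells per well with compound ran for 48–96 h (depending on the line) at 37° C; cells were then counted with a Coulter instrument.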

Molt4/C8 cells = assay: Cytostatic assay, Molt4/C8; type: cell-based; conditions: Table 2
Summary of the method: as §1

Sup T1 cells = assay: Cytostatic assay, Sup T1; type: cell-based; conditions: Homo sapiens, Table 2, read-out: Cytostatic activity (μM) Sup T 1
Summary of the method: as §1

MT-2 cells = assay: Cytostatic assay, MT-2; type: cell-based; conditions: Homo sapiens, MT2; Table 2
Summary of the method: as §1

C8166 cells = assay: Cytostatic assay, C8166; type: cell-based; conditions: Homo sapiens, Table 2
Summary of the method: as §1

HUT-78 cells = assay: Cytostatic assay, HUT-78; type: cell-based; conditions: Homo sapiens, HuT78; Table 2
Summary of the method: as §1

MT-4 cells = assay: Cytostatic assay, MT-4; type: cell-based; conditions: Homo sapiens, MT4; Table 2
Summary of the method: as §1

[1] = test system: HL60, human leukemia cells; assay: Cytostatic assay, HL-60; type: cell-based; conditions: Table 2
Summary of the method: as §1

[2] = test system: U937, human monocytic cells; assay: Cytostatic assay, U937; type: cell-based; conditions: U-937, Table 2
Summary of the method: as §1

[3] = test system: THP-1, human monocytic cells; assay: Cytostatic assay, THP-1; type: cell-based; conditions: Table 2
Summary of the method: as §1

[4] = test system: Raji, human B-lymphoma cells; assay: Cytostatic assay, Raji; type: cell-based; conditions: Table 2
Summary of the method: as §1

[5] = test system: Daudi, human B-lymphoma cells; assay: Cytostatic assay, Daudi; type: cell-based; conditions: Table 2
Experimental: (§2) To each well of a 96-well microtiter plate were added 5-7.5×10^4 cells and a given amount of the test compound. The cells were allowed to proliferate for 48 h to 96 h (depending on the nature of the cell line) at 37° C. in a humidified CO2-controlled atmosphere. At the end of the incubation period, the cells were counted in a Coulter Counter (Coulter Electronics Ltd, Harpenden Herts, United Kingdom).

L1210 cells = assay: Cytostatic assay, L1210; type: cell-based; conditions: Mus musculus, Table 2
Summary of the method: as §1

[6] = test system: HOS CD4+ osteosarcoma cells; assay: Cytostatic assay, HOS CD4+; type: cell-based; conditions: Homo sapiens; Table 3
Experimental: as §2

[7] = test system: OST TK- osteosarcoma cells; assay: Cytostatic assay, OST TK-; type: cell-based; conditions: Homo sapiens; Table 3
Summary of the method: as §1

[8] = test system: MCF-7 mammary carcinoma cells; assay: Cytostatic assay, MCF-7; type: cell-based; conditions: Homo sapiens, MCF7; Table 3
Summary of the method: as §1

[9] = test system: FM3A mammary carcinoma cells; assay: Cytostatic assay, FM3A; type: cell-based, murine; conditions: Mus musculus, Table 3
Summary of the method: as §1

[10] = test system: HeLa cervix carcinoma cells; assay: Cytostatic assay, HeLa; type: cell-based, human; conditions: Homo sapiens; Table 3; read-out: Cytostatic activity (μM) Hela
Summary of the method: as §1

[11] = test system: Caki-1 kidney carcinoma cells; assay: Cytostatic assay, Caki-1; type: cell-based; conditions: Homo sapiens, Table 3
Summary of the method: as §1

[12] = test system: Caki-2 kidney carcinoma cells; assay: Cytostatic assay, Caki-2; type: cell-based; conditions: Homo sapiens, Table 3
Summary of the method: as §1

[13] = test system: 293T embryonic kidney cells; assay: Cytostatic assay, 293T; type: cell-based; conditions: Homo sapiens, HEK-293T; Table 3
Summary of the method: as §1

[14] = test system: HT29 colorectal carcinoma cells; assay: Cytostatic assay, HT29; type: cell-based; conditions: Homo sapiens, HT-29; Table 3
Summary of the method: as §1

U87 glioma cells = assay: Cytostatic assay, U87; type: cell-based; conditions: Homo sapiens, U-87 MG; Table 3
Summary of the method: as §1

[15] = test system: U87 CD4+/CXCR4+/CCR5+ glioma cells; assay: Cytostatic assay, U87 CD4+/CXCR4+/CCR5+; type: cell-based; conditions: Homo sapiens, Glioma cell; Table 3
Experimental: as §2

[16] = test system: HEL embryonic lung fibroblast cells; assay: Cytostatic assay, HEL; type: cell-based; conditions: Homo sapiens, Table 3
Summary of the method: as §1

[17] = test system: BAEC aortic endothelial cells; assay: Cytostatic assay, BAEC; type: cell-based, bovine; conditions: Bos taurus, Table 3
Summary of the method: as §1

[18] = test system: PC3 (rega) prostate cancer cells; assay: Cytostatic assay, PC3 (rega); type: cell-based; conditions: Table 4
Summary of the method: as §1

BPH-1 (UZ) = assay: Cytostatic assay, BPH-1 (UZ); type: cell-based; conditions: Homo sapiens, Table 4
Summary of the method: as §1

[19] = test system: DU145 (UZ) prostate cancer cells; assay: Cytostatic assay, DU145 (UZ); type: cell-based; conditions: Homo sapiens, DU-145; Table 4
Summary of the method: as §1

[20] = test system: PC-3 (UZ) prostate cancer cells; assay: Cytostatic assay, PC-3 (UZ); type: cell-based; conditions: Table 4
Summary of the method: as §1

[21] = test system: LNCaP (UZ) prostate cancer cells; assay: Cytostatic assay, LNCaP (UZ); type: cell-based; conditions: Homo sapiens, Table 4
Summary of the method: as §1

[22] = test system: PNT1A (UZ) prostate cells; assay: Cytostatic assay, PNT1A (UZ); type: cell-based; conditions: Homo sapiens, Table 4
Summary of the method: as §1

[23] = test system: 22Rv1 (UZ) prostate cancer cells; assay: Cytostatic assay, 22Rv1 (UZ); type: cell-based; conditions: Homo sapiens, Table 4
Summary of the method: as §1

PLC/PRF/5 hepatoma cells = assay: Cytostatic assay, PLC/PRF/5; type: cell-based; conditions: Homo sapiens, Table 4
Summary of the method: as §1

HepG2C3A hepatoma cells = assay: Cytostatic assay, HepG2C3A; type: cell-based; conditions: Homo sapiens, HepG2/C3A; Table 4
Summary of the method: as §1

Huh-7 hepatoma cells = assay: Cytostatic assay, Huh-7; type: cell-based; conditions: Homo sapiens, Table 4
Summary of the method: as §1

[24] = test system: DNA synthesis in CEM cells; assay: Antimetabolic activity assay, [CH3-3H]dThd incorporation (DNA synthesis), CEM; type: cell-based; conditions: Homo sapiens, CCRF-CEM, incorporation into TCA-insoluble material
Summary of the method: (§3)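 Each well held 10^5 CEM cells, 1 μCi of one labelled precursor and compound over a 5-fold dilution range. Following a 20 hrs incubation at 37° C, acid-insoluble radioactivity retained on glass fiber filters was determined.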

[25] = test system: DNA synthesis in Raji cells; assay: Antimetabolic activity assay, [CH3-3H]dThd incorporation (DNA synthesis), Raji; type: cell-based; conditions: Homo sapiens, incorporation into TCA-insoluble material
[26] = test system: RNA synthesis in CEM cells; assay: Antimetabolic activity assay, [5-3H]uridine incorporation (RNA synthesis), CEM; type: cell-based; conditions: Homo sapiens, CCRF-CEM, incorporation into TCA-insoluble material
Summary of the method: as §3

[27] = test system: RNA synthesis in Raji cells; assay: Antimetabolic activity assay, [5-3H]uridine incorporation (RNA synthesis), Raji; type: cell-based; conditions: Homo sapiens, incorporation into TCA-insoluble material
[28] = test system: protein synthesis in CEM cells; assay: Antimetabolic activity assay, [4,5-3H]leucine incorporation (protein synthesis), CEM; type: cell-based; conditions: Homo sapiens, CCRF-CEM, incorporation into TCA-insoluble material
Summary of the method: as §3

[29] = test system: protein synthesis in Raji cells; assay: Antimetabolic activity assay, [4,5-3H]leucine incorporation (protein synthesis), Raji; type: cell-based; conditions: Homo sapiens, incorporation into TCA-insoluble material
[30] = test system: broad variety of tumor cell lines; assay: Cytostatic assays, summary over the panel of cell lines (Tables 2-4); type: cell-based
Summary of the method: as §1

[31] = Table 1a, read-out: IC50 μM (CEM)
[32] = Table 2, read-out: Cytostatic activity (μM) CEM
[33] = Homo sapiens, HuT78, range for the seven compounds, MT-4 and HUT-78 cells, read-out: IC50 range, cytostatic activity against MT-4 and HUT-78 cells
[34] = range for the seven compounds against the 5 tumor cell lines, read-out: IC50 range, cytostatic activity against CEM, Molt4/C8, Sup T1, MT-2 and C8166 cells

COC(=O)c1cc(CCc2ccccc2)sc1N [TR575, 2-Amino-5-phenethyl-thiophene-3-carboxylic acid methyl ester]
IC50 (CEM cells; [31]): 1.5 µM
IC50 (CEM cells; [32]): 1.5 ± 1.3 µM
IC50 (Molt4/C8 cells): 1.2 ± 0.6 µM
IC50 (Sup T1 cells): 1.1 ± 0.73 µM
IC50 (MT-2 cells): 0.79 ± 0.092 µM
IC50 (C8166 cells): 2.2 µM
IC50 (HUT-78 cells): 36 ± 13 µM
IC50 (MT-4 cells): 27 ± 0.71 µM
IC50 [1]: 5.7 ± 7.2 µM
IC50 [2]: 46 ± 7.1 µM
IC50 [3]: 38 ± 6.4 µM
IC50 [4]: 50 ± 3.5 µM
IC50 [5]: 38 ± 2.1 µM
IC50 (L1210 cells): 25 µM
IC50 [6]: 48 ± 1.4 µM
IC50 [7]: 9.8 ± 7.4 µM
IC50 [8]: 36 ± 9.2 µM
IC50 [9]: 67 ± 18 µM
IC50 [10]: 38 ± 2.8 µM
IC50 [11]: 6.5 ± 3.5 µM
IC50 [12]: 43 ± 4.2 µM
IC50 [13]: 45 ± 16 µM
IC50 [14]: 41 ± 2.8 µM
IC50 (U87 glioma cells): 50 ± 3.5 µM
IC50 [15]: 73 ± 3.5 µM
IC50 [16]: 38 ± 12 µM
IC50 [17]: 26 ± 4.2 µM
IC50 [18]: 0.24 ± 0.19 µM
IC50 (BPH-1 (UZ)): 52 ± 1.4 µM
IC50 [19]: 5.4 ± 0.96 µM
IC50 [20]: 0.51 ± 0.064 µM
IC50 [21]: 0.35 ± 0.014 µM
IC50 [22]: 39 ± 3.5 µM
IC50 [23]: 9.1 ± 0.35 µM
IC50 (PLC/PRF/5 hepatoma cells): 44 ± 2.1 µM
IC50 (HepG2C3A hepatoma cells): 10 ± 5.2 µM
IC50 (Huh-7 hepatoma cells): 1.7 ± 0.21 µM
IC50 [24]: 3.1 ± 1 µM
IC50 [25]: ≥ 100 µM
IC50 [26]: 0.96 ± 0.37 µM
IC50 [27]: > 100 µM
IC50 [28]: 0.61 ± 0.04 µM
IC50 [29]: 84 ± 6 µM
IC50 [30, 33]: 8.5 to 60 µM
IC50 [30, 34]: 0.22 to 3.4 µM

COC(=O)c1cc(CCc2ccc(OC)cc2C)sc1N [TR583, 2-Amino-5-[2-(4-methoxy-2-methyl-phenyl)-ethyl]-thiophene-3-carboxylic acid methyl ester]
IC50 (CEM cells; [31]): 1.5 µM
IC50 (CEM cells; [32]): 1.5 ± 0.28 µM
IC50 (Molt4/C8 cells): 0.27 ± 0.27 µM
IC50 (Sup T1 cells): 0.95 ± 0.64 µM
IC50 (MT-2 cells): 1.8 ± 0.64 µM
IC50 (C8166 cells): 1.6 ± 0.95 µM
IC50 (HUT-78 cells): 39 ± 27 µM
IC50 (MT-4 cells): 60 ± 0.71 µM
IC50 [1]: 4.9 ± 5.4 µM
IC50 [2]: 40 ± 2.8 µM
IC50 [3]: 32 ± 4.9 µM
IC50 [4]: 93 ± 11 µM
IC50 [5]: 61 ± 1.4 µM
IC50 (L1210 cells): 248 ± 40 µM
IC50 [6]: 67 ± 6.4 µM
IC50 [7]: 10 ± 6.9 µM
IC50 [8]: 79 ± 30 µM
IC50 [9]: 49 ± 9.9 µM
IC50 [10]: 105 ± 68 µM
IC50 [11]: 4.5 ± 3.8 µM
IC50 [12]: ≥ 200 µM
IC50 [13]: 84 ± 23 µM
IC50 [14]: > 100 µM
IC50 (U87 glioma cells): > 100 µM
IC50 [15]: 48 ± 6.4 µM
IC50 [16]: 87 ± 19 µM
IC50 [17]: 44 ± 22 µM
IC50 [18]: 0.57 ± 0.3 µM
IC50 (BPH-1 (UZ)): > 100 µM
IC50 [19]: 14 ± 1.2 µM
IC50 [20]: 1.3 ± 0.071 µM
IC50 [21]: 0.35 ± 0.067 µM
IC50 [22]: > 100 µM
IC50 [23]: 21 ± 17 µM
IC50 (PLC/PRF/5 hepatoma cells): 62 ± 21 µM
IC50 (HepG2C3A hepatoma cells): 13 ± 0.71 µM
IC50 (Huh-7 hepatoma cells): 4.6 ± 0.28 µM
IC50 [24]: 3.1 ± 0.3 µM
IC50 [25]: > 100 µM
IC50 [26]: 1 ± 0.5 µM
IC50 [27]: > 100 µM
IC50 [28]: 1.9 ± 1.6 µM
IC50 [29]: > 100 µM
IC50 [30, 33]: 8.5 to 60 µM
IC50 [30, 34]: 0.22 to 3.4 µM
